Legend:
MDR1 = target: T1, MDR1 (Homo sapiens, UniProt P08183); experiment: Reversal of MDR1-mediated vincristine resistance in HL60/Vinc cells (alamarBlue cell growth); format: cell-based; details: oncolytic alone at the tested concentration
T1 construct: HL60/Adr and HL60/Vinc are continuous cell lines, which were selected for doxorubicin and vincristine resistance respectively; endogenous in cells; host or cells: HL60/Vinc (vincristine-selected variant of human HL60)
Experimental: (§1) The biological activity of the compounds of the present invention was evaluated employing an initial screening assay which rapidly and accurately measured the activity of the tested compound in inhibiting MRP1 or MDR1. Assays useful for evaluating this reversing capability are well known in the art. See, e.g., T. McGrath, et al., Biochemical Pharmacology, 38:3611, 1989; D. Marquardt and M. S. Center, Cancer Research, 52:3157, 1992; D. Marquardt, et al., Cancer Research, 50:1426, 1990; and Cole, et. al., Cancer Research, 54: 5902-5910, 1994.
(§2) Assay for Reversal of MRP1-Mediated Doxorubicin Resistance and MDR1-Mediated Vincristine Resistance: HL60/Adr and HL60/Vinc are continuous cell lines, which were selected for doxorubicin and vincristine resistance respectively by culturing HL60, a human acute myeloblastic leukemia cell line, in increasing concentrations of doxorubicin or vincristine until a highly resistant variant was attained.
(§3) HL60/Adr and HL60/Vinc cells were grown in RPMI 1640 (Gibco) containing 10% fetal bovine serum (FBS) and 50 μg/ml GENTAMICIN™ (Sigma). Cells were harvested; washed twice with assay medium (same as culture media); counted; and diluted to 1×10^5 cells/ml in assay medium. One hundred microliters of cells were aliquoted into wells of a 96 well tissue culture plate. […]

MRP1 = target: T2, MRP1 (Homo sapiens, UniProt P33527); experiment: Reversal of MRP1-mediated doxorubicin resistance in HL60/Adr cells (alamarBlue cell growth); format: cell-based; details: oncolytic alone at the tested concentration
T2 construct: HL60/Adr and HL60/Vinc are continuous cell lines, which were selected for doxorubicin and vincristine resistance respectively; endogenous in cells; host or cells: HL60/Adr (doxorubicin-selected variant of human HL60)
Experimental: as §1, §2, §3

T2 sequence (P33527 whole entry): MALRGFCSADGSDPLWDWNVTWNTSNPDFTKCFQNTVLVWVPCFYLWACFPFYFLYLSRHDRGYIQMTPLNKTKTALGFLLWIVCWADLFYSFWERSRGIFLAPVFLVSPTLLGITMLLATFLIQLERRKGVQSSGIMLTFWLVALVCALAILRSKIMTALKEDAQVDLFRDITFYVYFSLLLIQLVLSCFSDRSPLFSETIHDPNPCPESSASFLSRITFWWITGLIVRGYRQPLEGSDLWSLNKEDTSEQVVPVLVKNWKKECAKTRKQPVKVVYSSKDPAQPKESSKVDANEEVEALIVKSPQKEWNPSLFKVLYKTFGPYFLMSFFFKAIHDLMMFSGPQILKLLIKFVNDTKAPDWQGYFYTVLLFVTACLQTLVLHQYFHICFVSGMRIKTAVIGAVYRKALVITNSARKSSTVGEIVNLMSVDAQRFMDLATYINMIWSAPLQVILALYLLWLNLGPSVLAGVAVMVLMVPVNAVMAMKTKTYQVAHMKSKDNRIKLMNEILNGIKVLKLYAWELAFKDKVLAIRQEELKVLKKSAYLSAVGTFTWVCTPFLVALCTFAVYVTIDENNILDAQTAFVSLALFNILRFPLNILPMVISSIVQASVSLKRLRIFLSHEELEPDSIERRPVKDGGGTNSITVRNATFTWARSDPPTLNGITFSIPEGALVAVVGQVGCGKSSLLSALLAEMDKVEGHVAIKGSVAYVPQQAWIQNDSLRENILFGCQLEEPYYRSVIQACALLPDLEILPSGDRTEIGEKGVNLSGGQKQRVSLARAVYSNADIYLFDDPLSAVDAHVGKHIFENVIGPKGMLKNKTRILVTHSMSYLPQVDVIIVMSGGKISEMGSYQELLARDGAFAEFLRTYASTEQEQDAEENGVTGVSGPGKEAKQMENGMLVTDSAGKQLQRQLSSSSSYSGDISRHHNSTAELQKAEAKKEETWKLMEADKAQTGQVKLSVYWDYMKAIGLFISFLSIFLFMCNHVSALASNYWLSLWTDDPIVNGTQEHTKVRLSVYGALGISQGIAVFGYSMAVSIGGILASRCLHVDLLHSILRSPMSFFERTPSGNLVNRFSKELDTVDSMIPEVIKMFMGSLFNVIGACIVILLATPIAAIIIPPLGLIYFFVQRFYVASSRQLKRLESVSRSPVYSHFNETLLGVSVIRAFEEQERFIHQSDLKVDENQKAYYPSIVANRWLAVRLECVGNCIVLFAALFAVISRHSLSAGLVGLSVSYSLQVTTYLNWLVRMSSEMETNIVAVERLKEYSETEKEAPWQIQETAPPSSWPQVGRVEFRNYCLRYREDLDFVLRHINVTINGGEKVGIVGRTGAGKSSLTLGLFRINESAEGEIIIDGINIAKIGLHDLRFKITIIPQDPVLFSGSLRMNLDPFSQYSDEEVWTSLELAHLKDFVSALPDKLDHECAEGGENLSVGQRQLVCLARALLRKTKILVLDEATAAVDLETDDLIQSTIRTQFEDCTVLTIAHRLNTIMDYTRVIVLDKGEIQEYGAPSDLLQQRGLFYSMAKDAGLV
T1 sequence (P08183 whole entry): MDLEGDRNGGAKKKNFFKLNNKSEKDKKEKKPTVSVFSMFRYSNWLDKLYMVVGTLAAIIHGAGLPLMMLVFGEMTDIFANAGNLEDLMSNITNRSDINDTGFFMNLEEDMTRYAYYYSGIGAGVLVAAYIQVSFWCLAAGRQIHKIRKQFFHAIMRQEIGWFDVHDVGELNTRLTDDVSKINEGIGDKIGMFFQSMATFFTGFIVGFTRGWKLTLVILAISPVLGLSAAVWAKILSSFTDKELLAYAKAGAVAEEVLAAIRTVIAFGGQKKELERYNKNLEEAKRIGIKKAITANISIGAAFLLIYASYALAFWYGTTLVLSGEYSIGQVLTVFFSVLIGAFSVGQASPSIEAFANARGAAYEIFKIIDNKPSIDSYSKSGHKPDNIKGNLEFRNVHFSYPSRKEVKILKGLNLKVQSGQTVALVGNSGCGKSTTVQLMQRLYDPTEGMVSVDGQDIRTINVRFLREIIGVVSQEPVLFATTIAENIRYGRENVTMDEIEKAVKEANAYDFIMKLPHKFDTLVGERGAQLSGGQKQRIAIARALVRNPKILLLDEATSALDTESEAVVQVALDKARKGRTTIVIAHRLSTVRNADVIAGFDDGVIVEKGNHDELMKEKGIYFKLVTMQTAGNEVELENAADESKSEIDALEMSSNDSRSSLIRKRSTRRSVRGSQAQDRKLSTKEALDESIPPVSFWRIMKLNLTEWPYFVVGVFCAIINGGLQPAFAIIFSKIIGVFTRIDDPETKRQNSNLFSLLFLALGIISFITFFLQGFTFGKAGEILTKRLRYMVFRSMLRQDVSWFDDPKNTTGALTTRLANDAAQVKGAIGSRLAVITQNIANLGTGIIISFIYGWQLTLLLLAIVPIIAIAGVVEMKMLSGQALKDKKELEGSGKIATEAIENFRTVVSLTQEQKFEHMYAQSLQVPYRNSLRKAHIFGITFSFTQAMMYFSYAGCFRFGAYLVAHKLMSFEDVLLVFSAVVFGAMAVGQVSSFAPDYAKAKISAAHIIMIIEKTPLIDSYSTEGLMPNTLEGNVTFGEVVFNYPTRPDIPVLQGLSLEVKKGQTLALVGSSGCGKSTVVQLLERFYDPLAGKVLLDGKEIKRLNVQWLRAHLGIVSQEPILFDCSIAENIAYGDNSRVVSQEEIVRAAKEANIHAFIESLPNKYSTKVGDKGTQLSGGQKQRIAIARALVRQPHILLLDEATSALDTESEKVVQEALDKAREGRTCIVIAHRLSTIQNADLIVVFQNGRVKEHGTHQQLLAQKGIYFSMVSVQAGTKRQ

COc1cccc2c1C(=O)c1c(O)c3c(c(O)c1C2=O)C[C@@](O)(C(=O)CO)C[C@@H]3O[C@H]1C[C@H](N)[C@H](O)[C@H](C)O1 [doxorubicin]
inhibition of cell growth by the oncolytic alone (MDR1): minimally inhibits | inhibition of cell growth by the oncolytic alone (MRP1): minimally inhibits
